According to patent publication US20250136581A1, “SUBSTITUTED TRIAZOLE DERIVATIVE, PREPARATION METHOD THEREFOR, PHARMACEUTICAL COMPOSITION THEREOF, AND USE THEREOF” (SHANGHAI SIMR BIOTECHNOLOGY CO., LTD., priority 2021, published 2025):
Like-named read-outs stand apart in the source and are kept apart here.

Experiments:
[1] = molecular target: human α5β3γ2 receptors (α5-GABAA receptor) (Homo sapiens (Human), UniProt P18507+P31644); experiment: 3H-flunitrazepam competition binding, human α5β3γ2 GABAA receptor; conditions: HEK293 cell membranes, 1 nM 3H-flunitrazepam
Method in brief: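 Radioligand displacement of 1 nM 3H-flunitrazepam from membranes of HEK293 lines stably expressing the human subtypes, 1 h at room temperature, compound in 8-point 4-fold series. Bound label on GF/C filters counted by scintillation; Ki derived from fitted IC50, with flumazenil as low control.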

human α1β3γ2 receptors = human α1β3γ2 receptors (Homo sapiens (Human), UniProt P14867+P18507); experiment: 3H-flunitrazepam competition binding, human α1β3γ2 GABAA receptor; conditions: HEK293 cell membranes, 1 nM 3H-flunitrazepam; read-out: Ki α1
Procedure: (§1) The affinity of the compound to each subtype of GABAA receptor was determined by competing for the binding of ^3H-flunitrazepam to HEK293 cells stably expressing human α1β3γ2, α2β3γ2, α3β3γ2, and α5β3γ2 receptors.
(§2) The cells were suspended in 50 mM Tris-HCl buffer (pH=7.4), homogenized 10 times on ice with a homogenizer for 20 seconds, and centrifuged at 1000 g for 10 minutes at 4° C. The supernatant was collected, and the above steps were repeated. The supernatant was centrifuged at 4° C. (33800 g; Thermo, rotor: A27-8×50) for 60 minutes, and the precipitate was resuspended in Tris buffer (50 mM Tris-HCl, 10 mM MgCl2, 0.5 mM EDTA, 10% glycerol). Protein was measured (BCA method, Pierce), and 1 mL aliquots were prepared and stored at −80° C.
(§3) The radioligand competition binding assay was performed in a 200 μL system (96-well plate) containing 100 μL of cell membrane. The concentration of ^3H-flunitrazepam was 1 nM and the concentration of the test compound was in the range of […]. Flumazenil was used as a control. 1 μL of 2 mM flumazenil (final concentration […]) was added to the low signal control well (Low control, LC), and 1 μL of DMSO was added to the high signal control well (High control, HC). The final concentration of target membrane protein was […]. All test compound sample storage solutions were 10 mM. The working concentration of the samples was to dilute all the samples to 0.2 mM with DMSO, followed by 4-fold serial gradient dilutions for a total of 8 concentration gradients. The 96-well plate was sealed with a sealing film, and then incubated on a shaker at room temperature for 1 hour. At the same time, the GF/C filter plate was soaked in soaking buffer (0.3% PEI, stored at 4° C.) for at least 0.5 hours. After the binding incubation was completed, the cells were collected onto a GF/C filter plate using a cell harvester. The plate was washed four times with washing buffer (50 mM Tris-HCl, pH 7.4, stored at 4° C.). After drying in a 50° C. oven for 1 hour, the bottom of the dried GF/C filter plate was sealed. The residual radioactivity on the filter membrane was detected using liquid scintillation counting. 50 μL of scintillation fluid was added to each well, and the plate was sealed. The readings were taken using a Microbeta2. The inhibitory activity of the test sample on the binding of ^3H-flunitrazepam to GABAA receptor membrane proteins was calculated, and the IC50 of each test sample was calculated by dose-effect curve fitting (GraphPad Prism 5 software), and the Ki of the sample was calculated from the IC50, thus evaluating the binding ability of the sample to the various subtypes of GABAA receptors.

human α2β3γ2 receptors = human α2β3γ2 receptors (Homo sapiens (Human), UniProt P18507+P47869); experiment: 3H-flunitrazepam competition binding, human α2β3γ2 GABAA receptor; conditions: HEK293 cell membranes, 1 nM 3H-flunitrazepam; read-out: Ki α2
Procedure: as §1, §2, §3

human α3β3γ2 receptors = human α3β3γ2 receptors (Homo sapiens (Human), UniProt P18507+P34903); experiment: 3H-flunitrazepam competition binding, human α3β3γ2 GABAA receptor; conditions: HEK293 cell membranes, 1 nM 3H-flunitrazepam; read-out: Ki α3
Procedure: as §1, §2, §3

[2] = molecular target: α5-GABAA receptor (α5, β3, γ2 subunits) (Homo sapiens (Human), UniProt P18507+P31644); experiment: Whole cell patch clamp, inverse agonist efficacy in HEK293 cells expressing α5-GABAA receptor; assay type: cell-based; conditions: HEK293, drug 100 nM, GABA 0.05 μM, −60 mV; read-out: Compound inverse agonist efficacy %
Method in brief: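 Compounds screened at 100 nM against current induced by 0.05 μM GABA in monoclonal HEK293 cells stably expressing α5β3γ2 GABAA receptors. Recording by whole-cell voltage clamp (−60 mV, pH 7.4 bath, CsCl pipette); efficacy calculated from leak-corrected currents before and after drug.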

SMILES: Cc1nnn(-c2ccc(C(F)F)cc2)c1COc1ccc(N2CCN(CCN3CCCC3)C(=O)C2)nn1 [Example 61, 4-(6-((1-(4-(Difluoromethyl)phenyl)-4-methyl-1H-1,2,3-triazol-5-yl)methoxy)pyridazin-3-yl)-1-(2-(pyrrolidin-1-yl)ethyl)piperazin-2-one]
- Ki ([1]; read-out: α5-GABAAR Ki): 2.12 nM
- Ki (human α1β3γ2 receptors): 126 nM
- Ki (human α2β3γ2 receptors): 26 nM
- Ki (human α3β3γ2 receptors): 13.1 nM
- inhibition at 0.1 µM [2]: 49%

SMILES: Cc1nnn(-c2ccc(C(F)F)cc2)c1COc1ccc(N2CC(=O)N3CCNCC3C2)nn1 (stereo not drawn) [Example 68, 2-(6-((1-(4-(Difluoromethyl)phenyl)-4-methyl-1H-1,2,3-triazol-5-yl)methoxy)pyridazin-3-yl)hexahydro-1H-pyrazino[1,2-a]pyrazin-4-(6H)-one]
- Ki ([1]; read-out: α5-GABAAR Ki): 0.84 nM
- Ki (human α1β3γ2 receptors): 56.9 nM
- Ki (human α2β3γ2 receptors): 17.1 nM
- Ki (human α3β3γ2 receptors): 14 nM
- inhibition at 0.1 µM [2]: 50.5%

SMILES: Cc1nnn(-c2ccc(C(F)F)cc2)c1COc1ccc(N2CC(=O)NC(C)(C)C2)nn1 [Example 7, 4-(6-((1-(4-(Difluoromethyl)phenyl)-4-methyl-1H-1,2,3-triazol-5-yl)methoxy)pyridazin-3-yl)-6,6-dimethylpiperazin-2-one]
- Ki ([1]; read-out: α5-GABAAR Ki): 1 nM
- Ki (human α1β3γ2 receptors): 122 nM
- Ki (human α2β3γ2 receptors): 26.2 nM
- Ki (human α3β3γ2 receptors): 17 nM

SMILES: Cc1nnn(-c2ccc(C(F)F)cc2)c1COc1ccc(N2CCN(C)C(=O)C2)cn1 [Example 22, 4-(6-((1-(4-(Difluoromethyl)phenyl)-4-methyl-1H-1,2,3-triazol-5-yl)methoxy)pyridin-3-yl)-1-methylpiperazin-2-one]
- Ki ([1]; read-out: α5-GABAAR Ki): 2.69 nM
- Ki (human α1β3γ2 receptors): 87 nM
- Ki (human α2β3γ2 receptors): 38.6 nM
- inhibition at 0.1 µM [2]: 48.4%

SMILES: Cc1nnn(-c2ccc(C(F)F)cc2)c1COc1ccc(N2CCN(CCN3CCOCC3)C(=O)C2)nn1 [Example 95, 4-(6-((1-(4-(Difluoromethyl)phenyl)-4-methyl-1H-1,2,3-triazol-5-yl)methoxy)pyridazin-3-yl)-1-(2-morpholinoethyl)piperazin-2-one]
- Ki ([1]; read-out: α5-GABAAR Ki): 0.67 nM
- Ki (human α1β3γ2 receptors): 6.23 nM
- inhibition at 0.1 µM [2]: 51.9%

SMILES: Cc1nnn(-c2ccc(C(F)F)cc2)c1COc1ccc(N2CCOC2=O)nn1 [Example 23, 3-(6-((1-(4-(Difluoromethyl)phenyl)-4-methyl-1H-1,2,3-triazol-5-yl)methoxy)pyridazin-3-yl)oxazolidin-2-one]
- Ki ([1]; read-out: α5-GABAAR Ki): 3.73 nM
- Ki (human α1β3γ2 receptors): 21.9 nM
- Ki (human α2β3γ2 receptors): 13.6 nM
- inhibition at 0.1 µM [2]: 44.1%

SMILES: Cc1nnn(-c2ccc(C(F)F)cc2)c1COc1ccc(N2CCN(C)C2=O)nn1 [Example 24, 1-(6-((1-(4-(Difluoromethyl)phenyl)-4-methyl-1H-1,2,3-triazol-5-yl)methoxy)pyridazin-3-yl)-3-methylimidazolidin-2-one]
- Ki ([1]; read-out: α5-GABAAR Ki): 7.72 nM
- Ki (human α1β3γ2 receptors): 19.3 nM
- Ki (human α2β3γ2 receptors): 17 nM

SMILES: O=C1CN(c2ccc(OCc3c(Cl)nnn3-c3ccc(F)cc3)nn2)CCN1 [Example 189, 4-(6-((4-Chloro-1-(4-fluorophenyl)-1H-1,2,3-triazol-5-yl)methoxy)pyridazin-3-yl)piperazin-2-one]
- Ki ([1]; read-out: α5-GABAAR Ki): 9.44 nM
- inhibition at 0.1 µM [2]: 42.1%

SMILES: Cc1nnn(-c2ccc(C(F)F)cc2)c1COc1ccc(N2CCN(Cc3ccccn3)C(=O)C2)nn1 [Example 60, 4-(6-((1-(4-(Difluoromethyl)phenyl)-4-methyl-1H-1,2,3-triazol-5-yl)methoxy)pyridazin-3-yl)-1-(pyridin-2-ylmethyl)piperazin-2-one]
- Ki ([1]; read-out: α5-GABAAR Ki): 1.33 nM
- inhibition at 0.1 µM [2]: 47.2%

SMILES: Cc1nnn(-c2ccc(CF)cc2)c1COc1ccc(N2CCN3CCNC(=O)[C@@H]3C2)nn1 [Example 162, (S)-8-(6-((1-(4-(Fluoromethyl)phenyl)-4-methyl-1H-1,2,3-triazol-5-yl)methoxy)pyridazin-3-yl)hexahydro-2H-pyrazino[1,2-a]pyrazin-1(6H)-one]
- Ki ([1]; read-out: α5-GABAAR Ki): 2.58 nM
- inhibition at 0.1 µM [2]: 47.7%

SMILES: Cc1nnn(-c2ccc(C(F)F)cc2F)c1COc1ccc(N2CCN3CCNC(=O)[C@@H]3C2)nn1 [Example 168, (S)-8-(6-((1-(4-(Difluoromethyl)-2-fluorophenyl)-4-methyl-1H-1,2,3-triazol-5-yl)methoxy)pyridazin-3-yl)hexahydro-2H-pyrazino[1,2-a]pyrazin-1(6H)-one]
- Ki ([1]; read-out: α5-GABAAR Ki): 2.84 nM
- inhibition at 0.1 µM [2]: 42.4%

SMILES: COc1cc(N2CCNC(=O)C2)nnc1OCc1c(C)nnn1-c1ccc(C(F)F)cc1 [Example 134, 4-(6-((1-(4-(Difluoromethyl)phenyl)-4-methyl-1H-1,2,3-triazol-5-yl)methoxy)-5-methoxypyridazin-3-yl)piperazin-2-one]
- Ki ([1]; read-out: α5-GABAAR Ki): 1.5 nM
- inhibition at 0.1 µM [2]: 45.7%

SMILES: Cc1nnn(-c2ccc(C(F)F)cc2)c1COc1ccc(N2CCN(CC3CCOC3)C(=O)C2)nn1 (stereo not drawn) [Example 98, 4-(6-((1-(4-(Difluoromethyl)phenyl)-4-methyl-1H-1,2,3-triazol-5-yl)methoxy)pyridazin-3-yl)-1-((tetrahydrofuran-3-yl)methyl)piperazin-2-one]
- Ki ([1]; read-out: α5-GABAAR Ki): 1.53 nM
- inhibition at 0.1 µM [2]: 53.7%

SMILES: Cc1nnn(-c2ccc(C(F)F)cc2)c1COc1ccc(N2CCNC(=O)C2C)nn1 (stereo not drawn) [Example 11, 4-(6-((1-(4-(Difluoromethyl)phenyl)-4-methyl-1H-1,2,3-triazol-5-yl)methoxy)pyridazin-3-yl)-3-methylpiperazin-2-one]
- Ki ([1]; read-out: α5-GABAAR Ki): 0.58 nM
- inhibition at 0.1 µM [2]: 49.1%

SMILES: Cc1nnn(-c2ccc(C(F)F)cc2)c1COc1ccc(N2CCN3CC(c4cnn(C)c4)NC(=O)[C@@H]3C2)nn1 (single isomer, unassigned) [Example 210]
- Ki ([1]; read-out: α5-GABAAR Ki): 2.79 nM
- inhibition at 0.1 µM [2]: 47.6%

SMILES: Cc1nnn(-c2ccc(C(F)F)cc2)c1COc1ccc(N2CC(C(=O)N3CCOCC3)C2)cn1 [Example 160, (1-(6-((1-(4-(Difluoromethyl)phenyl)-4-methyl-1H-1,2,3-triazol-5-yl)methoxy)pyridin-3-yl)azetidin-3-yl)(morpholino)methanone]
- Ki ([1]; read-out: α5-GABAAR Ki): 6.21 nM
- inhibition at 0.1 µM [2]: 42.7%

SMILES: Cc1nnn(-c2ccc(Cl)cc2)c1COc1ccc(N2CCN3CCNC(=O)[C@@H]3C2)nn1 [Example 163, (S)-8-(6-((1-(4-Chlorophenyl)-4-methyl-1H-1,2,3-triazol-5-yl)methoxy)pyridazin-3-yl)hexahydro-2H-pyrazino[1,2-a]pyrazin-1(6H)-one]
- Ki ([1]; read-out: α5-GABAAR Ki): 26.4 nM
- inhibition at 0.1 µM [2]: 43.6%

SMILES: Cc1nnn(-c2ccc(C(F)F)cc2)c1COc1ccc(N2CCN3[C@@H](C2)C(=O)N[C@@H]2CCC[C@@H]23)nn1 [Example 198, (4aS,6aR,9aS)-3-(6-((1-(4-(difluoromethyl)phenyl)-4-methyl-1H-1,2,3-triazol-5-yl)methoxy)pyridazin-3-yl)decahydrocyclopenta[e]pyrazino[1,2-a]pyrazin-5(1H)-one]
- Ki ([1]; α5-GABAAR Ki): 3.13 nM
- inhibition at 0.1 µM [2]: 48.2%

SMILES: Cc1nnn(-c2ccc(C(F)F)cc2)c1COc1ccc(N2CCN3CC(C(C)(C)C)NC(=O)[C@@H]3C2)nn1 (single isomer, unassigned) [Example 201]
- Ki ([1]; read-out: α5-GABAAR Ki): 1.74 nM
- inhibition at 0.1 µM [2]: 53.9%

SMILES: Cc1nnn(-c2ccc(C(F)F)cc2)c1COc1ccc(N2CC(C(=O)NC3CCN(C)CC3)C2)nn1 [Example 46, 1-(6-((1-(4-(Difluoromethyl)phenyl)-4-methyl-1H-1,2,3-triazol-5-yl)methoxy)pyridazin-3-yl)-N-(1-methylpiperidin-4-yl)azetidine-3-carboxamide]
- Ki ([1]; read-out: α5-GABAAR Ki): 1.91 nM
- inhibition at 0.1 µM [2]: 41.8%
